Experimental data as given in US20020022586A1, “Method for treating a patient with neoplasia by treatment with a pyrimidine analog” (priority 1998, published 2002).
Like-named read-outs stand apart in the source and are kept apart here.

Experiments:
COX = COX inhibition; format: biochemical
HT-29 cells [1] = assay: HT-29 tumor cell growth inhibition, SRB assay; format: cell-based, human; design: Growth Inhibition: key to the marks not given beside the values; details: for Growth inhibitory activity, % Inhibition at 100 μM / inhibition at 100 µM: 100 μM single dose; for IC50 / inhibition at 100 µM: Homo sapiens; for IC50: SRB assay; for inhibition at 100 µM: HT-29, read-out: Growth inhibitory activity, % Inhibition at 100 μM
[2] = tested on: PDE peak B (novel cGMP-specific PDE); assay: cGMP hydrolysis by PDE peak B isolated from SW-480 cells; format: biochemical, human; details: 0.25 μM 3H-cGMP
HT-29 cells [3] = assay: Apoptosis by DNA fragmentation assay in HT-29 cells; format: cell-based, human
cGMP-PDE = tested on: T1, cGMP-PDE; assay: cGMP-PDE inhibition assay, enzyme from HT-29 tumor cells; format: biochemical, human; details: 100 μM
T1 construct: other: 10 μM; other: 100 μM; other: enzyme from HT-29 cells; other: 20 μM

PDE peak A (PDE5) = target: T2, PDE peak A (PDE5) (Homo sapiens, UniProt O76074); assay: cGMP hydrolysis by PDE peak A isolated from SW-480 cells; format: biochemical
T2 construct: SW-480 cells are collected and homogenized; endogenous in cells; host or cells: SW-480 human colon adenocarcinoma cells; supernatant of homogenate fractionated on DEAE-Trisacryl M

MDA-MB-435 = assay: Growth inhibition of various cell lines (Table 5); format: cell-based; details: Homo sapiens
Protocol: (§1) To show the effectiveness of cGMP-specific PDE inhibition on various forms of neoplasia, compounds were tested on numerous cell lines. […] The IC50 values were determined by the SRB assay. […] Therefore, compounds selected for cGMP-specific PDE inhibition in combination with a pyrimidine analog should be useful for treating neoplasia, in particular breast, colorectal and pancreatic cancers.

DU-145 = assay: Growth inhibition of various cell lines (Table 5); format: cell-based; details: Homo sapiens
Protocol: as §1

HCT-15 = assay: Growth inhibition of various cell lines (Table 5); format: cell-based; details: Homo sapiens
Protocol: as §1

HT-29, Colon = assay: Growth inhibition of various cell lines (Table 5); format: cell-based; details: Homo sapiens
[4] = tested on: premalignant lesions in mouse mammary gland organ culture; assay: Mammary gland organ culture model; format: cell-based; details: for Mammary Gland Organ Culture: activity profile; for inhibition of premalignant lesions: mammary gland organ culture; for mammary gland organ culture: key: −: Not active; +: Slightly active; ++: Moderately active; +++: Strongly active; ++++: Highly active
Protocol: For example, female BALB/c mice can be treated with a combination of estradiol and progesterone daily, in order to prime the glands to be responsive to hormones in vitro. The animals are sacrificed and thoracic mammary glands are excised aseptically and incubated for ten days in growth media supplemented with insulin, prolactin, hydrocortisone, and aldosterone. DMBA (7,12-dimethylbenz(a)anthracene) is added to medium to induce the formation of premalignant lesions. Fully developed glands are then deprived of prolactin, hydrocortisone, and aldosterone, resulting in the regression of the glands but not the premalignant lesions.
The test compound is dissolved in DMSO and added to the culture media for the duration of the culture period. At the end of the culture period, the glands are fixed in 10% formalin, stained with alum carmine, and mounted on glass slides. The extent of the area occupied by the mammary lesions can be quantitated by projecting an image of the gland onto a digitation pad. The area covered by the gland is traced on the pad and considered as 100% of the area. The space covered by each of the unregressed structures is also outlined on the digitization pad and quantitated by the computer.
The incidence of forming mammary lesions is the ratio of the glands with mammary lesions to […]. The incidence of mammary lesions in test compound treated glands is compared with that of the untreated glands.
Mammary gland organ culture experiments were performed as previously described (Mehta and Moon, Cancer Research, 46: 5832-5835, 1986). […] The data support the hypothesis that cyclooxygenase inhibition is not necessary for the anti-neoplastic properties of desired compounds.

[5] = Side effects of exisulind on administration; format: in vivo
Description: This effect is reversible, and liver enzymes return to normal levels when the administered dose of exisulind returns to the traditionally recommended level or when treatment is discontinued. The most serious side effect of pyrimidine analogs, on the other hand, is bone marrow suppression.

A-427, Lung = assay: Growth inhibition of various cell lines (Table 5); format: cell-based; details: Homo sapiens
Protocol: as §1

[6] = tested on: Human Prostate Carcinoma PC3; assay: Growth inhibition of various cell lines (Table 5); format: cell-based
Protocol: as §1

HT-29 cells [7] = assay: Apoptosis and necrosis by morphology (acridine orange/ethidium bromide) in HT-29 cells; format: cell-based, human
Description: Following treatment with a test compound, cultures can be assayed for apoptosis and necrosis by fluorescent microscopy following labeling with acridine orange and ethidium bromide. The method for measuring apoptotic cell number has previously been described by Duke & Cohen, “Morphological And Biochemical Assays Of Apoptosis,” Current Protocols In Immunology, Coligan et al., eds., 3.17.1-3.17.16 (1992, which is incorporated herein by reference).
For example, floating and attached cells can be collected, and aliquots of cells can be centrifuged. The cell pellet can then be resuspended in media and a dye mixture containing acridine orange and ethidium bromide. The mixture can then be examined microscopically for morphological features of apoptosis.
Reference compounds and test compounds were analyzed for their cGMP-specific PDE inhibitory activity in accordance with the protocols for the assay, supra. […] Apoptotic and necrotic cell death was determined as previously described (Duke and Cohen, In: Current Protocols in Immunology, 3.17.1-3.17.16, New York, John Wiley and Sons, 1992). […] All data were collected from the same experiment.
The apoptosis inducing activity for a series of phosphodiesterase inhibitors was determined. HT-29 cell were treated for 6 days with various inhibitors of phosphodiesterase. Apoptosis and necrosis were determined morphologically after acridine orange and ethidium bromide labeling in accordance with the assay described, supra.

HT-29 cells [8] = assay: cAMP levels in cultured HT-29 cells by radioimmunoassay; format: cell-based, human; details: HT-29 cells treated 30 minutes
Description: It has been observed that a compound which is useful in the practice of this invention (i.e., one that selectively induces apoptosis in neoplastic cells, but not substantially in normal cells) follows a time course consistent with cGMP-specific PDE inhibition. […] The intracellular targets of these drug actions are being studied further, but current data support the concept that the initial rise in cGMP content and the subsequent fall in cAMP content precede apoptosis in neoplastic cells exposed to test compounds useful in this invention. To determine the cyclic AMP content in cell extracts, radioimmunoassay techniques similar to those described above for cGMP are used.

HT-29 cells [9] = assay: HT-29 growth inhibition by counting viable cells after trypan blue staining; format: cell-based, human; details: 120 μM, time course
Protocol: Growth inhibition (FIG. 9A, top) was measured by counting viable cells after trypan blue staining. Apoptosis (FIG. 9B, bottom) was measured by morphological determination following staining with acridine orange and ethidium bromide as described previously (Duke and Cohen, In: Current Protocols in Immunology, 3.17.1-3.17.16, New York, John Wiley and Sons, 1992). […] All data were collected from the same experiment.

HT-29 cells [10] = assay: cGMP levels in cultured HT-29 cells by radioimmunoassay; format: cell-based, human; details: HT-29 cells treated 30 minutes
MCF7/S, Breast = assay: Growth inhibition of various cell lines (Table 5); format: cell-based; details: Homo sapiens, MCF7S
Protocol: as §1

[11] = cGMP hydrolysis, 0.25 μM 3H-cGMP
[12] = 144 h, HT-29, 6 days, PDE inhibitors, read-out: Growth inhibition (IC50)

## CC(=O)NC(CSC12CC(=O)OC1(C)/C(=C/c1ccc(S(C)(=O)=O)cc1)c1ccc(F)cc12)C(=O)O (racemic) [D, rac-(E)-1-(butan-1′,4′-olido)-[3′,4′:1,2]-6-fluoro-2-methyl-3-(p-methylsulfonylbenzylidene)-1S-indanyl-N-acetylcysteine]
COX; activity profile
  COX Inhibition: −
HT-29 cells [1]
  Growth inhibitory activity, % Inhibition at 100 μM: 78%

## CCCCCC[C@@H]([C@@H](C)O)n1cnc2c(N)ncnc21 (racemic) [EHNA, reference compound]
[2]
  IC50: 3.7 µM
HT-29 cells [3]
  Apoptosis inducing activity, Fold induction at 100 μM: <2.0 fold

## CC1=C(CC(=O)O)c2cc(F)ccc2/C1=C\c1ccc(Cl)cc1 [C, (Z)-5-Fluoro-2-methyl-1-(p-chlorobenzylidene)-3-acetic acid]
HT-29 cells [1]
  Growth inhibitory activity, % Inhibition at 100 μM: 80%
cGMP-PDE
  cGMP PDE % Inhibition at 100 μM: <25%

## O=C([O-])C1CCN(c2nc(NCc3ccc4c(c3)OCO4)c3cc(Cl)ccc3n2)CC1.[Na+] [Compound E4021, reference compound]
HT-29 cells [1]
  Growth inhibitory activity, % Inhibition at 100 μM: <50%

## COc1cc(/C=C2/C(C)=C(CC(=O)NCc3ccccc3)c3cc(F)ccc32)cc(OC)c1OC [Compound E, (Z)-5-Fluoro-2-methyl-1-(3,4,5-trimethoxybenzylidene)-3-indenylacetamide, N-benzyl]
COX; 100 μM
  COX Inhibition: did not inhibit COX
COX; activity profile
  COX Inhibition: −
HT-29 cells [1]; HT-29, 144 h, six days, read-out: IC50 for growth inhibition of HT-29 cells
  IC50: 0.04 µM
HT-29 cells [1]
  inhibition at 100 µM: 62%
HT-29 cells [1]; activity profile
  Growth Inhibition: ++++
PDE peak A (PDE5); [11]
  IC50: 0.38 µM
[2]
  IC50: 0.37 µM
HT-29 cells [3]; Homo sapiens, HT-29, 48 hours, DNA fragmentation, read-out: EC50 for apoptosis induction
  EC50: 0.05 µM
cGMP-PDE
  cGMP PDE % Inhibition at 100 μM: 75%
MDA-MB-435
  IC50: 0.04 µM
DU-145
  IC50: 0.1 µM
HCT-15
  IC50: 0.6 µM
HT-29, Colon
  IC50: 0.1 µM
[4]
  Mammary Gland Organ Culture: ++++

## CC1=C(CC(=O)O)c2cc(F)ccc2/C1=C\c1ccc(S(C)(=O)=O)cc1 [Exisulind, (Z)-5-fluoro-2-methyl-1-[[4-(methylsulfonyl)phenyl]methylene]indene-3-yl acetic acid]
COX; activity profile
  COX Inhibition: −
[5]; 300-400 mg/day
  side effects at recommended dose: no significant side effects
[5]; doses higher than the recommended therapeutic levels, reversible
  liver enzymes at doses higher than recommended: elevated levels of liver enzymes
A-427, Lung
  IC50: 130 µM
[6]
  IC50: 82 µM
HT-29, Colon
  IC50: 120 µM
[4]
  inhibition of premalignant lesions: effectively inhibit the formation of premalignant lesions

## CC1=C(CC(=O)N(C2CCCCC2)C2CCCCC2)c2cc(F)ccc2/C1=C\c1ccc(S(C)(=O)=O)cc1 [F, (Z)-5-Fluoro-2-methyl-1-(p-methylsulfonylbenzylidene)-3-indenylacetamide, N,N′-dicyclohexyl]
COX; activity profile
  COX Inhibition: −

## CC1(C)C(=O)Nc2ccc(C3=NNC(=O)CC3)cc21 [Indolidan]
PDE peak A (PDE5); [11]
  IC50: 31 µM
[2]
  IC50: > 100 µM

## Clc1cccc(Nc2nnc(-c3ccccc3)c3ccccc23)c1 [MY5445, reference compound]
COX; activity profile
  COX Inhibition: ++++

## Cc1[nH]c(=O)c(C#N)cc1-c1ccncc1 [Milrinone]
HT-29 cells [1]; [12]
  IC50: > 200 µM
HT-29 cells [7]; HT-29, 6 days, morphology
  % Apoptosis: 18%
  % Necrosis: 0%

## COc1ccc(C2CNC(=O)C2)cc1OC1CCCC1 (stereo not shown) [Rolipram]
[2]
  IC50: > 100 µM
HT-29 cells [8]
  effect on cAMP levels: increased cAMP levels

## CCCc1nn(C)c2c(=O)[nH]c(-c3cc(S(=O)(=O)N4CCN(C)CC4)ccc3OCC)nc12 [Sildenafil, reference compound]
HT-29 cells [1]
  inhibition at 100 µM: < 50%

## CSc1ccc(/C=C2/C(C)=C(CC(=O)O)c3cc(F)ccc32)cc1 [Sulindac sulfide]
HT-29 cells [9]
  growth inhibition, viable cell count: capable of inhibiting tumor cell growth
COX; activity profile
  COX Inhibition: ++++
PDE peak A (PDE5)
  IC50: 50 µM
HT-29 cells [10]
  increase of cGMP levels: greater than 50%
MCF7/S, Breast
  IC50: 30 µM
HT-29 cells [7]; 120 μM, time course
  apoptosis by morphology: increase in apoptosis
[4]
  Mammary Gland Organ Culture: −
  inhibition of premalignant lesions: inactive

## CCOC(=O)C1=C[C@]2(CC)CCCN3CCc4c(n1c1ccccc41)[C@@H]32 [Vinpocetine]
PDE peak A (PDE5); [11]
  IC50: > 100 µM
[2]
  IC50: > 100 µM

## CCCOc1ccccc1-c1nc2nn[nH]c2c(=O)[nH]1 [Zaprinast, reference compound]
HT-29 cells [1]; [12]
  IC50: > 100 µM
HT-29 cells [1]
  inhibition at 100 µM: < 50%

## CC1=C(CC(=O)O)c2cc(F)ccc2/C1=C/c1ccc([S+](C)[O-])cc1 (stereo not shown) [sulindac sulfoxide]
[4]
  inhibition of premalignant lesions: effectively inhibit the formation of premalignant lesions

## rac-(E)-1-(butan-1′,4′-olido)-[3′,4′:1,2]-6-fluoro-2-methyl-3-(p-methylsulfonylbenzylidene)-1 S-indanyl-glutathione)
COX; activity profile
  COX Inhibition: −

## rac-threo-(E)-1-(N,N′-diethylaminoethanethio)-1-(butan-1′,4′-olido)-[3′,4′:1,2′]-6-fluoro-2-methyl-3-(p-methylsulfonylbenzylidene)-indan
COX; activity profile
  COX Inhibition: −
HT-29 cells [1]
  Growth inhibitory activity, % Inhibition at 100 μM: 68%
HT-29 cells [3]
  Apoptosis inducing activity, Fold induction at 100 μM: <2.0 fold
cGMP-PDE
  cGMP PDE % Inhibition at 100 μM: <25%
[4]
  Mammary Gland Organ Culture: ++

## ribo-(E)-1-Triazolo-[2′,3′:1″,3″]-1-(butan-1′,4′-olido)-[3′,4′:1,2]-6-fluoro-2-methyl-3-(p-methylsulfonylbenzylidene)-indan [G]
COX; activity profile
  COX Inhibition: −
